Legend:
[1] = test system: Corynebacterium xerosis CIP 5216; experiment: killing test: number of viable micro-organisms after contact; type: cell-based; details: 0.5%; for viable micro-organisms, CFU/g of preparation: 35° C., inoculum 1.4E7
Source text: The anti-microbial activity of Tryptophan ethyl ester hydrochloride (compound 1) was valuated in vitro on Corynebacterium xerosis (killing test, quantity of micro-organisms killed). Purpose of test: Quantitative determination of the activity of a cosmetic starting material with respect to Corynebacterium xerosis, a micro-organism involved in the phenomena linked to underarm odor. This micro-organism is placed in optimum growth conditions. Protocol: The model strain used is: Corynebacterium xerosis CIP 5216 (bacteria) The strain is placed into contact with the starting material to be tested in a suitable liquid culture medium. The dilutions of the compounds under evaluation are performed in agar at 1:1000, making it possible, for dispersible compounds under evaluation, to do away with the use of a solvent which could introduce bias in the evaluation of the compounds. In parallel, a growth control, in which the starting material to be tested is replaced with diluent, is prepared in the same conditions. The samples are placed in a rotating incubator at 35° C. and maintained under stirring for the entire duration of the test. After 2, 6 and 24 hours of contact, the number of viable micro-organisms remaining in the mixture is evaluated. The results are expressed as a logarithm of the number of micro-organisms per milliliter of mixture.

[2] = ex-vivo olfactory evaluation test on incubated sweat; details: for effect on the unpleasant odor: compared to the negative control (incubated sweat alone), concentrations as tested; for comparison of anti-odor activity, compound 1 versus ethyl N-acetyl-L-tryptophanate: equivalent dose, several concentrations (0.1%, 0.5%, 1%)
Description: The deodorant activity was evaluated in the ex-vivo olfactory evaluation test, on incubated sweat.
Tryptophan ethyl ester hydrochloride (compound 1 of the example A-1) was evaluated at various concentrations in a pool of fresh sweat.
The samples were prepared in 10-ml headspace screw bottles, they are incubated at 35° C. for 24 h under stirring. A sample of sweat with 1 mg of anhydrous aluminum hydroxychloride (ACH) in 1 ml of sweat (i.e. 0.1%) is incubated in order to serve as a positive reference (little odor) and a sample of sweat alone is incubated to serve as a negative reference (unpleasant odor).
The samples after incubation are evaluated olfactively by a panel of several people in a blind test on the headspace bottles. The incubated samples of sweat containing ACH and sweat alone are evaluated at the same time in order to be used respectively as […].
3 parameters are evaluated on a scale from 0 to 10: • The residual of the unpleasant odor with 0 for not very unpleasant (positive reference) and 10 for very unpleasant odor (negative reference). • The total power of the odor with 0 for little power and 10 for very powerful. • The pleasantness of the odor with 0 for not very pleasant and 10 for very pleasant.

[3] = Table 1, 0.1% in sweat, 35° C. 24 h, scale 0 to 10, panel of 6
[4] = Table 1, 0.5% in sweat, scale 0 to 10, panel of 6
[5] = Table 1, 1% in sweat, scale 0 to 10, panel of 6
[6] = Table 2, 0.1% in sweat, scale 0 to 10, panel of 6
[7] = Table 2, 0.5% in sweat, scale 0 to 10, panel of 6
[8] = Table 2, 1% in sweat, scale 0 to 10, panel of 6
[9] = Table 4, 0.3% in incubated sweat, scale 0 to 10
[10] = Table 5, 0.5% in incubated sweat, scale 0 to 10
[11] = Table 3, 0.5% in incubated sweat, scale 0 to 10, panel of 6
[12] = incubated sweat, release of odorous volatile molecules
[13] = Table 3, positive reference, 1 mg in 1 ml of sweat (0.1%), scale 0 to 10
[14] = Table 4, positive reference, 1 mg in 1 ml of sweat (0.1%), scale 0 to 10
[15] = Table 5, positive reference, 1 mg in 1 ml of sweat (0.1%), scale 0 to 10

Compound: CCOC(=O)[C@@H](N)Cc1c[nH]c2ccccc12.Cl [Compound 1, L-tryptophan ethyl ester chlorhydride]
- anti-microbial activity on C. xerosis ([1]; in terms of the growth control): excellent anti-microbial activity
- viable micro-organisms, CFU/g of preparation ([1]; 2 hours of contact): 4.6E3 CFU/g of preparation
- viable micro-organisms, CFU/g of preparation ([1]; 6 hours of contact): 4.0E1 CFU/g of preparation
- viable micro-organisms, CFU/g of preparation ([1]; 24 hours of contact): <20 CFU/g of preparation
- reduction in terms of the growth control ([1]; after 2 h of contact): 3.3 Log Units
- reduction in terms of the growth control ([1]; after 6 h of contact): 5.4 Log
- reduction in terms of the growth control ([1]; after 24 h of contact): greater than or equal to 6.6 Log
- Power [2, 3]: 3.2
- Residual unpleasant odor [2, 3]: 3.4
- Power [2, 4]: 2.8
- Residual unpleasant odor [2, 4]: 3.2
- Power [2, 5]: 1.4
- Residual unpleasant odor [2, 5]: 0.6
- Power [2, 6]: 3.2
- Residual unpleasant odor [2, 6]: 3.4
- Power [2, 7]: 2.8
- Residual unpleasant odor [2, 7]: 3.2
- Power [2, 8]: 1.4
- Residual unpleasant odor [2, 8]: 0.6
- Pleasantness of the odor [2, 9]: 5.3
- Power [2, 9]: 3
- Residual unpleasant odor [2, 9]: 1.7
- Pleasantness of the odor [2, 10]: 5.7
- Power [2, 10]: 3.3
- Residual unpleasant odor [2, 10]: 1.3
- effect on the unpleasant odor [2]: clear decrease in the unpleasant odor
- comparison of anti-odor activity, compound 1 versus ethyl N-acetyl-L-tryptophanate ([2]; incubated sweat): superiority
- comparison of anti-odor activity, compound 1 versus ethyl N-acetyl-L-tryptophanate ([2]; incubated sweat, listed as Tryptophan ester hydrochloride): better anti-odor activity than the Ethyl N-acetyl-L-tryptophanate

Compound: CCOC(=O)[C@H](Cc1c[nH]c2ccccc12)NC(C)=O [Compound 2, ethyl N-Acetyl-L-tryptophanate, reference compound]
- Power [2, 6]: 6.2
- Residual unpleasant odor [2, 6]: 6.8
- Power [2, 7]: 6.8
- Residual unpleasant odor [2, 7]: 7.5
- Power [2, 8]: 6.6
- Residual unpleasant odor [2, 8]: 7
- comparison of anti-odor activity, compound 1 versus ethyl N-acetyl-L-tryptophanate ([2]; incubated sweat): not as effective as Tryptophan ethyl ester hydrochloride

Compound: CC/C=C\CCOC(=O)[C@@H](N)Cc1c[nH]c2ccccc12 [Compound 3, Tryptophan cis-3-hexenyl ester]
- Pleasantness of the odor [2, 11]: 7.8
- Power [2, 11]: 6.8
- Residual unpleasant odor [2, 11]: 1
- effect on the unpleasant odor [2]: effect of reducing the unpleasant odor
- Pleasantness of the odor [2, 12]: contribute to the pleasantness of the odor

Compound: CC/C=C\CCOC(=O)[C@@H](N)Cc1c[nH]c2ccccc12.Cl [Compound 4, Tryptophan cis-3-hexenyl ester hydrochloride]
- Pleasantness of the odor [2, 11]: 6
- Power [2, 11]: 7
- Residual unpleasant odor [2, 11]: 2.5
- effect on the unpleasant odor [2]: effect of reducing the unpleasant odor
- Pleasantness of the odor [2, 12]: contribute to the pleasantness of the odor

Compound: C=CC(C)CCCC(C)(C)OC(=O)[C@@H](N)Cc1c[nH]c2ccccc12 (stereo partly drawn) [Compound 5, Tryptophan dihydromyrcenyl ester]
- Pleasantness of the odor [2, 11]: 5.8
- Power [2, 11]: 5.5
- Residual unpleasant odor [2, 11]: 2.5
- effect on the unpleasant odor [2]: effect of reducing the unpleasant odor
- Pleasantness of the odor [2, 12]: contribute to the pleasantness of the odor

Compound: CCCCCCCCOC(=O)[C@@H](N)Cc1c[nH]c2ccccc12.Cl [Compound 6, Tryptophan octyl ester hydrochloride]
- Pleasantness of the odor [2, 9]: 7
- Power [2, 9]: 7
- Residual unpleasant odor [2, 9]: 0.3
- Pleasantness of the odor [2, 10]: 7.7
- Power [2, 10]: 6.3
- Residual unpleasant odor [2, 10]: 0.3
- effect on the unpleasant odor [2]: effect of reducing the unpleasant odor
- Pleasantness of the odor [2, 12]: generates a pleasant odor

Compound: N[C@@H](Cc1c[nH]c2ccccc12)C(=O)OCc1ccccc1 [Compound 7, Tryptophan benzyl ester]
- Pleasantness of the odor [2, 10]: 3.7
- Power [2, 10]: 4.3
- Residual unpleasant odor [2, 10]: 3
- effect on the unpleasant odor [2]: effect on the reduction of the unpleasant odor
- Pleasantness of the odor [2, 12]: generate a pleasant odor

Compound: CC(C)(C)OC(=O)[C@@H](N)Cc1c[nH]c2ccccc12.Cl [Compound 8, Tryptophan tertiobutyl ester hydrochloride]
- Pleasantness of the odor [2, 10]: 5.7
- Power [2, 10]: 4
- Residual unpleasant odor [2, 10]: 1.7
- effect on the unpleasant odor [2]: effect on the reduction of the unpleasant odor
- Pleasantness of the odor [2, 12]: generate a pleasant odor

Compound: anhydrous aluminum hydroxychloride [ACH, reference compound]
- Power [2, 3]: 1.6
- Residual unpleasant odor [2, 3]: 0.5
- Power [2, 6]: 1.6
- Residual unpleasant odor [2, 6]: 0.5
- Pleasantness of the odor [2, 13]: 4
- Power [2, 13]: 0.8
- Residual unpleasant odor [2, 13]: 0.3
- Pleasantness of the odor [2, 14]: 3.7
- Power [2, 14]: 2.7
- Residual unpleasant odor [2, 14]: 2.7
- Pleasantness of the odor [2, 15]: 5
- Power [2, 15]: 2
- Residual unpleasant odor [2, 15]: 1.7

— patent US11517516B2, “Use of ester derivative of tryptophan as deodorant and/or perfume agent” (L'oreal, priority 2014, dated 2022)
